Data from patent US6733985B1, “Preparation of stable liquid and dried synthetic prothrombin time reagents” (International Technidyne Corporation, priority 1999, dated 2004).
Where a SMILES comes first, the peptide text is derived from it.

B1: recombinant tissue factor: recombinant tissue factor based PT reagent, named in b17 as comparison for sensitivity (protein, UniProt P13726 33-295, looked up)
Tissue factor: SGTTNTVAAYNLTWKSTNFKTILEWEPKPVNQVYTVQISTKSGDWKSKCFYTTDTECDLTDEIVKDVKQTYLARVFSYPAGNVESTGSAGEPLYENSPEFTPYLETNLGQPTIQSFEQVGTKVNVTVEDERTLVRRNNTFLSLRDVFGKDLIYTLYYWKSSSSGKKTAKTNTNEFLIDVDKGENYCFSVQAVIPSRTVNRKSTDSPVECMGQEKGEFREIFYIIGAVVFVVIILVIILAISLHKCRKAGVGQSWKENSPLNVS
modifications: PT reagent
notes: recombinant tissue factor based PT reagent, named in b17 as comparison for sensitivity

Assays:
[1] = test system: Level I (normal control) and Level III (abnormal control) control plasma; assay: traditional prothrombin time test method using a Fibrometer; settings: amino acid stabilizer compound formulated into PT reagent (summary of Examples 1 to 13)
Procedure: The concentration of the dissolved phospholipids was 12.76 mM. […] Additional bovine serum albumin was added to a concentration of 4.8 mg/ml. […] The dialyzed lipidated tissue factor, was then drained from the dialysis bag. […] The formulated material was frozen at −70° C., and then thawed. The thawed formulated material was incubated at 25 and 37° C. for 4 weeks, The reagent was taken out from the incubation at weekly intervals and subjected to coagulation assay by traditional prothrombin time test method using a Fibrometer. The control plasma samples used for the assay were Level I (normal control) and Level III (abnormal control) of Ortho Diagnostics Corporation. […] The Level III abnormal control plasma contains a reduced amount of coagulation factors representing the plasma of patients.

[2] = test system: Control Level I or Level III plasma samples; assay: clotting assay of air-dried reagent in cuvets for Protime instrument; assay type: biochemical; settings: Example 11 lipidated tissue factor in 14 mM Hepes, 4% sorbitol, 1% β-alanine, with 1% polymeric carbohydrate or none
Procedure: The formulated material was air-dried at 20° C. and 5% relative humidity in cuvets for Protime instrument (a product of International Technidyne Corporation, Edison, N.J.). The produced cuvets with reagent were incubated at 25, 37 and 45° C. for stability studies. At given time intervals, the cuvets were taken out of the incubators and assayed for their clotting activities. Freshly withdrawn blood, Control Level I or Level III plasma samples were added to the cuvets with the dried reagent for assay. Calcium chloride, 8.3 mM, was added to the control plasmas and loaded on the cuvet immediately for assay. In this assay system, reconstitution of the dried reagent is done with plasma or blood, without using water, which is different from Fibrometer assay system. Thence, the kinetics involved in these two systems are different, as well as the clotting times. Whole blood contains a considerable amount of red blood cells and other blood components and its clotting activity is different from that of plasma. For comparison, the clotting time with freshly withdrawn whole blood at day zero was 22.8 seconds.
As shown in the results, γ-Cyclodextrin is a useful homogeneous polymeric carbohydrate to adjust the sensitivity of the synthetic PT reagent.

[3] = test system: Level III and Level I plasma; settings: prior art comparison; cited from earlier work

Molecule | Level III/I ratio test results [1] | also measured
N=C(N)NCCC[C@H](N)C(=O)O [Arginine] | Unsatis- | 
N[C@@H](CC(=O)O)C(=O)O [Aspartic acid] | Unsatis- | 
NCCC(=O)O [Beta alanine] | Satisfac- | 
NCCCCC(=O)O [Delta aminovaleric acid] | Satisfac- | 
NCCCC(=O)O [Gamma aminobutyric acid] | Satisfac- | 
NCC(=O)NCC(=O)O [Glycylglycine] (H-Gly-Gly-OH) | Unsatis- | 
OC[C@H]1O[C@@H]2O[C@H]3[C@H](O)[C@@H](O)[C@@H](O[C@H]4[C@H](O)[C@@H](O)[C@@H](O[C@H]5[C@H](O)[C@@H](O)[C@@H](O[C@H]6[C@H](O)[C@@H](O)[C@@H](O[C@H]7[C@H](O)[C@@H](O)[C@@H](O[C@H]8[C@H](O)[C@@H](O)[C@@H](O[C@H]9[C@H](O)[C@@H](O)[C@@H](O[C@H]1[C@H](O)[C@H]2O)O[C@@H]9CO)O[C@@H]8CO)O[C@@H]7CO)O[C@@H]6CO)O[C@@H]5CO)O[C@@H]4CO)O[C@@H]3CO [γ-Cyclodextrin] |  | Clotting Times, Level I [2]: 17.6 s; Clotting Times, Level III [2]: 81.8 s; III/I Ratio [2]: 4.7
NCCCCCC(=O)O [ε-aminocaproic acid] | Unsatis- | 
B1 |  | Level III/I sensitivity [3]: 4.0
